Laboratory results as given in publication PMC8400042, “Selective DNA Gyrase Inhibitors: Multi-Target in Silico Profiling with 3D-Pharmacophores” (Pharmaceuticals, 2021).
Read-outs that look alike come from different tables or passages of the source.

Columns and labels:
human Hsp90α NTD [1] = molecular target: T1, human Hsp90α NTD (Homo sapiens, UniProt P07900); test: fluorescence-based thermal shift assay (FTSA), binding to Hsp90; conditions: for Kd: FTSA
T1 construct: Production and purification of recombinant Hsp90α NTD have been described previously; made in house
Protocol: Production and purification of recombinant Hsp90α NTD have been described previously. The molecular weight of the protein has been confirmed by high-resolution mass spectrometry, purity by SDS-PAGE, and the concentration was determined by UV-VIS spectrophotometry at 280 nm. The synthesis, chemical structure determination, and purity of compounds 1-7 have been previously described.
Compound binding to Hsp90 was determined by the fluorescence-based thermal shift assay (FTSA) which determines the thermal stability of the free and ligand-bound protein [61, 62, 63]. The stabilization efficiency is directly related to the ligand-binding affinity. The experiments were carried out with Corbett Rotor-Gene 6000 (QIAGEN Rotor-Gene Q) spectrofluorimeter (using excitation 365 ± 20 nm and detection at 460 ± 15 nm). Protein solutions in the presence of various concentrations of a compound were heated from 25 to 95 °C at a rate of 1 °C/min. Protein unfolding was monitored by measuring the fluorescence of 8-anilino-1-naphthalenesulfonate (ANS) dye at added 50 μM concentration. Increasing concentration of a compound shifted the protein denaturation temperature increasingly upwards depending on the binding affinity. Samples contained 5 μM protein, ligand concentration ranging from 0 to 200 μM, […] (pH 7.5) containing […] and 2% DMSO. Protein melting temperatures were determined by fitting the fluorescence curves while the compound dosing curves were simulated as described previously. All experiments were repeated at least twice.

E. coli DNA gyrase [2] = molecular target: T2, E. coli DNA gyrase (Escherichia coli, UniProt P0AES6); test: DNA supercoiling assay (Inspiralis); assay type: biochemical
T2 construct: purchased Inspiralis
Protocol: The DNA supercoiling assay from Inspiralis for the determination of IC50 values was performed according to previously reported procedures.

[3] = molecular target: T3, human DNA topoisomerase IIα (Homo sapiens, UniProt P11388); test: human DNA topoisomerase IIα DNA relaxation assay (Inspiralis); assay type: biochemical; conditions: for IC50: DNA relaxation assay, read-out: Human TopoII IC50; for inhibition of TopoII (in words): concentrations up to 100 μM
T3 construct: purchased Inspiralis
Protocol: Inhibitory activities were determined in an assay from Inspiralis on streptavidin-coated 96-well microtitre plates from Thermo Scientific Pierce. […] After washing off the unbound oligonucleotide, the enzyme assay was performed. […] Reaction solutions were incubated at 37 °C for 30 min. After that, the TF buffer (50 mM NaOAc, 50 mM NaCl, and 50 mM MgCl2, pH 5.0) was added to terminate the enzymatic reaction. After additional incubation for 30 min at RT, during which biotin–oligonucleotide–plasmid triplex was formed, the unbound plasmid was washed off using TF buffer, and Diamond Dye in T10 buffer (10 mM Tris·HCl, 1 mM EDTA, pH 8.0) was added. […] Initial screening was done at 100 or 10 μM concentrations of inhibitors. […] GraphPad Prism 6 software was used to calculate the IC50 values. The results are reported as the average value of three independent measurements.

human Hsp90α NTD [4] = molecular target: T1, human Hsp90α NTD; test: fluorescence-based thermal shift assay (FTSA), binding to Hsp90; conditions: concentrations up to 100 μM
human Hsp90α NTD [5] = molecular target: T1, human Hsp90α NTD; conditions: cited from earlier work
[6] = test system: Hsp90 C-terminal domain (CTD); parameters: method as in PMID 10945979, PMID 10655441; conditions: cited from earlier work
human TopoII = test system: human TopoII; parameters: method as in PMID 2537141; conditions: cited from earlier work
E. coli DNA gyrase [7] = molecular target: T2, E. coli DNA gyrase; conditions: cited from earlier work
[8] = DNA supercoiling assay, read-out: E. coli DNA gyrase IC50

T3 sequence (P11388 whole entry): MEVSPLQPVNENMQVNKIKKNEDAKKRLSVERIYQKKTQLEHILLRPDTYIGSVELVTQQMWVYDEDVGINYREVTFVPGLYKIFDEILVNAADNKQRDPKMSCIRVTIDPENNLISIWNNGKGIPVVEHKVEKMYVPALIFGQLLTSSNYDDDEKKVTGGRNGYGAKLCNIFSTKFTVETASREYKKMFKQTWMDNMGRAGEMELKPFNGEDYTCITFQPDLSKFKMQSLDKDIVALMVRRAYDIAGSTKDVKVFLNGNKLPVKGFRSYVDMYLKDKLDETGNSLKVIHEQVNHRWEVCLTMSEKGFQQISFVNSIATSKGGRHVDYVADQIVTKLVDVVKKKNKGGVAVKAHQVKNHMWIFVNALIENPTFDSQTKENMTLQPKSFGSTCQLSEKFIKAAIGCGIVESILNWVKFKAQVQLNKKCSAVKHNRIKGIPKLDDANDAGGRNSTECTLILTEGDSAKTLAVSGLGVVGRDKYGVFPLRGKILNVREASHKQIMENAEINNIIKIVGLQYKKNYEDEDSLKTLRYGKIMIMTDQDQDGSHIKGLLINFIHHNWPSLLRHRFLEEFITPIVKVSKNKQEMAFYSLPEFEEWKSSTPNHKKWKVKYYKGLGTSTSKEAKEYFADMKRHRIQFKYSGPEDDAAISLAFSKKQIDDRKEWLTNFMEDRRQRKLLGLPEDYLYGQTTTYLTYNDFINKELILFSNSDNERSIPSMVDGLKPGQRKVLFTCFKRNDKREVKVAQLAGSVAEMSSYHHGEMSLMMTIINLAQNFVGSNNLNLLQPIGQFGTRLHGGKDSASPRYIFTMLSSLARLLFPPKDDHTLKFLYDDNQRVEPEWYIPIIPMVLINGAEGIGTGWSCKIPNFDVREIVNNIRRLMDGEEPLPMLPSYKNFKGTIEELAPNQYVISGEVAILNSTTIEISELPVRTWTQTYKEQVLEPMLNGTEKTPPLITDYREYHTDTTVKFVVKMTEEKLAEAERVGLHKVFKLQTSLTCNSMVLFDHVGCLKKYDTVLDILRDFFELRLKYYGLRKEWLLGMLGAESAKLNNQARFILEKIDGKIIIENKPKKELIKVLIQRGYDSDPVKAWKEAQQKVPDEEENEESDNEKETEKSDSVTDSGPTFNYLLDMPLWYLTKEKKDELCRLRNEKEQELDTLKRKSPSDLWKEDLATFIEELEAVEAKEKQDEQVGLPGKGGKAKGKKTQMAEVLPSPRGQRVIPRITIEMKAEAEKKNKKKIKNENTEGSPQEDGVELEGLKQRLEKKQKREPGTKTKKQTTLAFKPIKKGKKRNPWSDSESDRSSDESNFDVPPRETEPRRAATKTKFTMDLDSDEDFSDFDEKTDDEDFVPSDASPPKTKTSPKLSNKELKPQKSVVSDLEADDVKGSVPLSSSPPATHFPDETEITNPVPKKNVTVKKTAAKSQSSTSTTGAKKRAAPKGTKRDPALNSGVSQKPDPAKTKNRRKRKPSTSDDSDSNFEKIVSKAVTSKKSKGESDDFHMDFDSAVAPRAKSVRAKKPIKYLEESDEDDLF

Structure (SMILES): O=c1nc(SCc2cc(F)cc(C(F)(F)F)c2)nc(SCc2ccc(Cl)cc2)[nH]1 [Compound 6]
- activity at Hsp90 in vitro (in words) (human Hsp90α NTD [1]): inactive
- Kd (human Hsp90α NTD [1]): > 100 µM
- activity at GyrB / DNA gyrase in vitro (in words) (E. coli DNA gyrase [2]): inactive
- IC50 (E. coli DNA gyrase [2]; [8]): > 100 µM

Structure (SMILES): COc1ccc(-c2snnc2-c2cc(Cl)c(O)cc2O)cc1 [Compound 3]
- IC50 (E. coli DNA gyrase [2]): > 100 µM
- activity at GyrB / DNA gyrase in vitro (in words) (E. coli DNA gyrase [2]): no inhibition
- activity at TopoII in vitro (in words) [3]: no inhibition
- IC50 [3]: > 100 µM

Structure (SMILES): O=C(O)C(=O)Nc1ccc2nc(NC(=O)c3cc(Cl)c(Cl)[nH]3)sc2c1 [Compound 1]
- activity at Hsp90 in vitro (in words) (human Hsp90α NTD [1]): inactive
- Kd (human Hsp90α NTD [1]): > 100 µM
- activity at TopoII in vitro (in words) [3]: inactive
- IC50 [3]: > 100 µM
- inhibition of TopoII (in words) [3]: devoid of activity
- binding to Hsp90α NTD (in words) (human Hsp90α NTD [4]): devoid of activity

Structure (SMILES): CC(C)Cc1cc(-c2nnsc2-c2ccccc2)c(O)cc1O [Compound 4]
- activity at GyrB / DNA gyrase in vitro (in words) (E. coli DNA gyrase [2]): no inhibition
- IC50 (E. coli DNA gyrase [2]; [8]): > 100 µM
- activity at TopoII in vitro (in words) [3]: no inhibition
- IC50 [3]: > 100 µM
- Kd (human Hsp90α NTD [5]): 0.0066 µM

Structure (SMILES): O=c1nc(SCc2cc(F)cc(C(F)(F)F)c2)nc(SCc2ccccc2F)[nH]1 [Compound 5]
- activity at Hsp90 in vitro (in words) (human Hsp90α NTD [1]): inactive
- Kd (human Hsp90α NTD [1]): > 100 µM
- activity at GyrB / DNA gyrase in vitro (in words) (E. coli DNA gyrase [2]): inactive
- IC50 (E. coli DNA gyrase [2]; [8]): > 100 µM

Structure (SMILES): NS(=O)(=O)c1c(F)c(F)c(SCCO)c(F)c1NC1CCCCCCC1 [Compound 7]
- activity at Hsp90 in vitro (in words) (human Hsp90α NTD [1]): inactive
- Kd (human Hsp90α NTD [1]): > 100 µM
- activity at GyrB / DNA gyrase in vitro (in words) (E. coli DNA gyrase [2]): inactive
- IC50 (E. coli DNA gyrase [2]; [8]): > 100 µM
- activity at TopoII in vitro (in words) [3]: inactive
- IC50 [3]: > 100 µM

Structure (SMILES): CO[C@@H]1[C@@H](OC(N)=O)[C@@H](O)[C@H](Oc2ccc3c(O)c(NC(=O)c4ccc(O)c(CC=C(C)C)c4)c(=O)oc3c2C)OC1(C)C [novobiocin]
- binding to allosteric binding site at Hsp90 CTD (in words) [6]: weakly bind
- inhibition of human TopoII (in words) (human TopoII): inhibit

Structure (SMILES): Cc1[nH]c(C(=O)N[C@H]2CCc3nc(NC(=O)CC(=O)O)sc3C2)c(Br)c1Br [Compound 2]
- activity at Hsp90 in vitro (in words) (human Hsp90α NTD [1]): inactive
- Kd (human Hsp90α NTD [1]): > 100 µM
- IC50 (E. coli DNA gyrase [7]; DNA supercoiling assay, read-out: Escherichia coli DNA gyrase IC50): < 0.1 µM
- IC50 (E. coli DNA gyrase [7]; read-out: E. coli DNA gyrase IC50): 0.02 µM
- activity at TopoII in vitro (in words) [3]: inactive
- IC50 [3]: > 100 µM
- inhibition of TopoII (in words) [3]: devoid of activity
- binding to Hsp90α NTD (in words) (human Hsp90α NTD [4]): devoid of activity
